Measured values reported in patent US20200000969A1, “HYALURONIC ACID COMPOSITIONS INCLUDING MEPIVACAINE” (LABORATOIRES VIVACY, priority 2013, published 2020).

Legend:
[1] = cited from earlier work
[2] = Release kinetics of local anesthetic from hyaluronic acid gel by dialysis, UV-visible spectrophotometry; type: physicochemical; settings: HA 3×10^6 Da, X=0.12, 20 mg/g; for mass percentage of local anesthetic in the hyaluronic acid gel: initial 3 mg/g, 37° C., physiological saline
Method: The release kinetics were, however, studied at 37° C. in physiological saline medium. Monitoring by UV-visible spectrophotometry is performed to assay the local anesthetic present in the gel.

release kinetics from the hyaluronic acid gel (FIG. 1), lidocaine versus mepivacaine ([2]; 3 mg/g, dialysis at 37° C. in physiological saline): comparable
mass percentage of local anesthetic in the hyaluronic acid gel ([2]; dialysis time 0 h): 0.290 mass %
mass percentage of local anesthetic in the hyaluronic acid gel ([2]; dialysis time 1.5 h): 0.133 mass %
mass percentage of local anesthetic in the hyaluronic acid gel ([2]; dialysis time 5 h): 0.100 mass %
mass percentage of local anesthetic in the hyaluronic acid gel ([2]; dialysis time 7 h): 0.098 mass %
mass percentage of local anesthetic in the hyaluronic acid gel ([2]; dialysis time 23 h): 0.086 mass %
mass percentage of local anesthetic in the hyaluronic acid gel ([2]; dialysis time 48 h): 0.077 mass %
mass percentage of local anesthetic in the hyaluronic acid gel ([2]; dialysis time 72 h): 0.075 mass %
SMILES: Cc1cccc(C)c1NC(=O)C1CCCCN1C (stereo not drawn) [Mepivacaine, mepivacaine]
pKa [1]: 7.7
